Assays:
[1] = test system: ChAT activity in spinal cord cultures; assay: Effect of indolocarbazole esters on ChAT activity in dissociated spinal cord cultures; assay type: cell-based, rat
Procedure: The effect of indolocarbazole esters of the invention on ChAT activity was assayed in dissociated spinal cord cultures prepared from fetal rats. ChAT is the enzyme that catalyzes the synthesis of the neurotransmitter acetylcholine, and it is a specific biochemical marker for cholinergic neurons. In the spinal cord, the large majority of cholinergic neurons are motor neurons. Assay of this enzyme may thus be used as an indication of the effects of a factor (or factors) on the survival and/or differentiation of cholinergic neurons and/or regulation of this enzyme. The procedure used for the assay is that described in Example 6 of WO 94/02488. Fourteen esters were tested in the spinal cord ChAT assay to determine their relative efficacy, and the results are summarized in Table 4.

[2] = In vitro metabolism of I-5 esters in human plasma; assay type: in vitro ADME; settings: 5000 ng/mL, 37° C.
Procedure: (§1) Freshly-collected plasma from male Sprague-Dawley rats and presumably-healthy drug-free male humans was pooled and immediately frozen. The plasma was kept frozen at −90° C. and each aliquot was thawed only once for use in incubations. Stock solutions of the indolocarbazole esters were prepared in DMSO and were used to prepare standard curves in plasma that had been boiled to two minutes. Boiled plasma was divided into 500 μL aliquots, mixed with an aliquot of the internal standard, and spiked with the respective stock indolocarbazole ester solutions to prepare the standard curve. Thawed plasma was divided into 500 μL aliquots, placed in screw-cap vials, mixed with internal standard, and spiked with stock solutions of the respective indolocarbazole esters to yield a nominal concentration of 5000 ng/mL.
(§2) Incubations were then performed at 37° C. in a shaking water bath for 0, 0.5, 1, 2, 5, 10, 15, 30, and 60 minutes and quenched by addition of 5 mL methylene chloride. All tubes (standards and experimentals) were extracted for 15 minutes by shaking, and centrifuged. The methylene chloride layer was removed, dried under a stream of nitrogen, and reconstituted in DMSO. Fifty μL of the reconstituted extracts were analyzed by reverse-phase HPLC with detection at 290 nm. The mobile phase and gradient conditions are given below: […]

[3] = Solubility of the esters at 1 mg/ml in water and buffer solutions; settings: for solubility in Tris buffer: 10 mM Tris buffer pH 9; for solubility in acetate buffer: 10 mM acetate buffer pH 4; for solubility in phosphate buffer: 10 mM phosphate buffer pH 7; for solubility in water: water (Solution 1)
Procedure: Indolocarbazole esters were dissolved in water, dimethylsulfoxide (DMSO) and the following buffer solutions to determine solubility and to observe conversion to indolocarbazole I-5. Samples were analyzed by HPLC using UV detection at 290 nm.
Solution 2 was a 10 mM acetate buffer at pH 4 which was prepared by weighing 0.68 g of sodium acetate 3H2O into 500 ml of water and adjusting the pH with acetic acid.
Solution 3 was a 10 mM phosphate buffer, pH 7, which was prepared by weighing 0.30 g of monobasic sodium phosphate and 0.36 g of dibasic sodium phosphate into 500 ml of water, stirring until completely dissolved, and adjusting the pH with hydrochloric acid.
Solution 4 was a 10 mM Tris buffer, pH 9, which was prepared by weighing 0.79 g of Tris (tris(hydroxymethyl)aminomethane hydrochloride) into 500 ml of water, stirring until completely dissolved, and adjusting the pH with sodium hydroxide.
Sample solutions were prepared by weighing 0.5-1 mg of the indolocarbazole ester into an amber 1.5 ml autosampler vial, to which the appropriate quantity of one of the buffer solutions was added, in order to achieve a final concentration of 1 mg/ml. The sample solutions were vortexed and sonicated for 10 minutes. Fifty μl aliquots were placed into 1.5 ml amber autosampler vials. The reaction was quenched at a selected time interval by addition of 450 μl DMSO to the vial.

[4] = In vitro metabolism of I-5 esters in rat plasma; assay type: in vitro ADME; settings: 5000 ng/mL, 37° C.
Procedure: as §1, §2

[5] = Stability of the esters in buffered solution (conversion to indolocarbazole I-5, HPLC); assay type: physicochemical; settings: buffer solutions, 24 hours
Procedure: Solution 5 was a DMSO control.
HPLC conditions were as follows:
The pH of the compounds in water varied from 2 to 5 while the buffers remained approximately the same at 3.6, 6.7 and 7.8 for the 10 mM acetate, phosphate and Tris, respectively.
Acetate buffers at pH 2, 3, 4, 5 and 6 were prepared as follows. A total of 6.8 g of sodium acetate trihydrate was added to one liter of water, and the mixture was stirred until the solid was completely dissolved. One hundred ml aliquots were placed into 150 ml Erlenmeyer flasks, and the pH values were adjusted with HCl to pH 2, 3, 4, 5, and 6. A concentration of 50 mM was chosen to reduce the effects of compound addition. The indolocarbazole ester of Example 14 was investigated only with the acetate buffers. The rates of conversion of I-5 (the appearance of indolocarbazole I-5) as a function of pH are shown in FIGS. 3, 4, and 5 for the indolocarbazole esters of Examples 14, 8, and 11, respectively.

[6] = Route-to-route comparison of indolocarbazole I-5 formation from lysyl-β-alaninate in rats; assay type: in vivo, rat; settings: for plasma levels of indolocarbazole I-5: intravenous 8.01 mg/kg
Procedure: Groups of 12 male Sprague-Dawley rats were administered lysyl-β-alaninate dihydrochloride via intravenous or subcutaneous injection, as well as by oral gavage at a dose of 8.01 mg/kg. This dose was designed to deliver a 5 mg/kg equivalent dose of indolocarbazole I-5 following complete hydrolysis of the indolocarbazole ester. The volume of the dosing solution was adjusted on the basis of body weight. At 5, 30, 60, and 120 minutes after intravenous injection and 30, 60, 120, and 240 minutes after either subcutaneous injection or oral gavage, the animals were anesthetized with carbon dioxide and a sample of whole blood was obtained by cardiac puncture. The blood was placed into a heparinized container containing 100 μL 50% potassium fluoride (an inhibitor of plasma esterases) and 10 μL phenylmethylsulfonylfluoride (an inhibitor of plasma amidase). Following centrifugation, the resulting plasma was frozen in a dry-ice/isopropanol bath and kept frozen at −90° C. prior to analysis.
For analysis, the samples were thawed, internal standard was added, and the mixture was extracted with 5 mL methylene chloride. Standards in rat plasma were prepared as described previously. All tubes (standards and experimentals) were extracted for 15 minutes by shaking, and centrifuged. The methylene chloride layer was removed, dried under a stream of nitrogen, and reconstituted in DMSO. Fifty μL of the reconstituted extracts was analyzed by reverse-phase HPLC with detection at 290 nm. The mobile phase and gradient conditions are the same as those given in Example 17.

[7] = test system: Dunning R-3327 AT-2 rat prostate tumor; assay: Anti-tumor efficacy against the androgen-independent AT-2 rat prostate tumor; assay type: in vivo
Procedure: Rat prostate cancer Dunning R-3327 AT-2.1 cells (Isaacs et al., Prostate 9:261-281, 1986) were grown at 37 C. in a humidified incubator, with a 95% air/5% CO2 atmosphere, in RPMI-1640 medium containing 10% fetal calf serum, 250 nM dexamethasone, 2 mM glutamine, penicillin (100 I.U./mL), and streptomycin (100 μg/mL), and 1 mM sodium pyruvate. The cells were determined to be free of mycoplasma and rodent viruses (MAP testing) by Microbiological Associates. Exponentially growing cells were harvested using 6 mL of warm trypsin. The total volume was brought up to 10 mL with media to neutralize trypsin and cells were counted. The cells were then collected by brief centrifugation, and cell pellet was resuspended in Hanks' Balanced Salt Solution to achieve the final concentration of 1×10^7 live cells/mL.
Male inbred Copenhagen rats (200-225 g) obtained from Harlan Sprague-Dawley, Indianapolis, Ind., were maintained three rats/cage and given a commercial diet (Purina Formulab 5001) and water ad libitum. Animals were housed under humidity- and temperature-controlled conditions and light/dark cycle was set at 12-hour intervals. Rats were quarantined for one week before experimental manipulation. Tumor cell implantation and growth
Fifty adult male Copenhagen rats were inoculated with live AT-2 cells (1×10^6 cells/rat) into their right flank. Seven days later, rats bearing AT-2 tumors (approximately 0.5‥0.7 cm^3 in volume) were divided into five groups of ten animals each. A description of the experimental groups is given below. Dosing volumes of either I-5 or its lysyl-β-alaninate ester (1 mL/kg) were based on the average weight of the animals in each dosing group and were adjusted as necessary twice a week. Tumors were measured in anesthetized animals (isofluorane vapor for approximately 1-2 minutes) every 3-4 days using a vernier caliper. Tumor volume was calculated using the formula:
V(cm)=0.5236×length(cm)×width(cm)[(length(cm)+width(cm))/2].
Indolocarbazole I-5 was dissolved in vehicle defined below:
(I-5)-Lysyl-β-alaninate was dissolved in 50 mM sodium acetate buffer, pH 5.5.

[8] = In vitro metabolism of I-5 esters in rat liver S-9 fraction; assay type: in vitro ADME; settings: 2 mg/mL protein, 5000 ng/mL
Procedure: Rat and human liver S-9 fractions (a mixture of cytosol and microsomes) were frozen immediately after preparation. Each aliquot was thawed once for use in incubations. Stock solutions of the indolocarbazole esters were prepared in DMSO. These were used to prepare standard curves in heat inactivated S-9 fraction that had been diluted with 0.2M phosphate buffer, pH 7.4 to yield a 2 mg/mL protein concentration. Heat inactivated S-9 was divided into 500 μL aliquots, mixed with an aliquot of the internal standard, and spiked with the respective stock ester solutions to prepare the standard curve. Incubations containing liver S-9 fraction were prepared by diluting the S-9 fraction in 0.2M phosphate buffer, pH 7.4 to yield a 2 mg/mL protein concentration. Samples (500 μL) were placed in screw-cap vials, mixed with internal standard, and spiked with stock solutions of the respective esters to yield a nominal concentration of 5000 ng/mL.
as §2

| Structure (SMILES) | Spinal Cord ChAT Activity (% of Control) 500 nM [1] | Spinal Cord ChAT Activity (% of Control) 1000 nM [1] | hydrolysis, conversion to indolocarbazole I-5 [2] | solubility in Tris buffer [3] | solubility in acetate buffer [3] | solubility in phosphate buffer [3] | solubility in water [3] | maximum rates of hydrolysis [4] | further results |
| --- | --- | --- | --- | --- | --- | --- | --- | --- | --- |
| COC1(COC(=O)C(N)CCCCN)CC2OC1(C)n1c3ccccc3c3c4c(c5c6ccccc6n2c5c31)C(=O)NC4.Cl.Cl (stereo not drawn) [Example 1, (I-5)-Lysinate Dihydrochloride] | 150 % of Control | 153 % of Control | hydrolyzed rapidly | completely soluble | completely soluble | completely soluble | completely soluble | – | – |
| COC1(COC(=O)CN)CC2OC1(C)n1c3ccccc3c3c4c(c5c6ccccc6n2c5c31)C(=O)NC4.Cl (stereo not drawn) [Example 2, (I-5)-Glycinate Hydrochloride] | 157 % of Control | 151 % of Control | – | – | – | – | – | more extensively hydrolyzed | – |
| COC1(COC(=O)C(C)N)CC2OC1(C)n1c3ccccc3c3c4c(c5c6ccccc6n2c5c31)C(=O)NC4.Cl (stereo not drawn) [Example 3, (I-5)-Alaninate Hydrochloride] | 151 % of Control | 132 % of Control | not detectable | not completely soluble | completely soluble | not completely soluble | completely soluble | more extensively hydrolyzed | – |
| COC1(COC(=O)C(N)CCCNC(=N)N)CC2OC1(C)n1c3ccccc3c3c4c(c5c6ccccc6n2c5c31)C(=O)NC4.Cl.Cl (stereo not drawn) [Example 10, (I-5)-Argininate Dihydrochloride] | 128 % of Control | 170 % of Control | hydrolyzed rapidly | – | – | – | – | – | hydrolysis of the ester linkage, liberation of indolocarbazole I-5 [4]: complete prior to the first sampling period |
| COC1(COC(=O)CCNC(=O)C(N)CCCCN)CC2OC1(C)n1c3ccccc3c3c4c(c5c6ccccc6n2c5c31)C(=O)NC4.Cl.Cl (stereo not drawn) [Example 14, (I-5)-Lysyl-β-Alaninate Dihydrochloride] | 121 % of Control | 147 % of Control | – | completely soluble | completely soluble | completely soluble | completely soluble | – | rate of conversion to indolocarbazole I-5 [5]: low rate of conversion; plasma levels of indolocarbazole I-5 ([6]; 5 minutes after dosing): approximately 600 ng/mL; plasma levels of indolocarbazole I-5 ([6]; 2 hours after dosing): approximately 80 ng/mL; plasma levels of I-5 ([6]; oral dose 8.01 mg/kg, limit of quantitation): < 50 ng/mL; conversion to I-5 in vivo ([6]; rat): rapidly converted; plasma levels of I-5 ([6]; subcutaneous 8.01 mg/kg, all time points examined): approximately 70 ng/mL; Tumor volume Day 0 ([7]; Day 0, daily sc dosing, Mean ± SE): 0.6 ± 0.1 cm^3; Tumor volume Day 3 ([7]; Day 3, daily sc dosing, Mean ± SE): 1.5 ± 0.2 cm^3; Tumor volume Day 6 ([7]; Day 6, daily sc dosing, Mean ± SE): 2.1 ± 0.2 cm^3; Tumor volume Day 9 ([7]; Day 9, daily sc dosing, Mean ± SE): 4.8 ± 0.6 cm^3; Tumor volume Day 13 ([7]; Day 13, daily sc dosing, Mean ± SE): 8.3 ± 0.5 cm^3; inhibiting the growth of AT-2 tumors ([7]; adult male Copenhagen rats): effective; inhibition of tumor growth ([7]; by Day 13 of dosing): 72%; hydrolysis of the ester [8]: initial hydrolysis of the amide bond between the two amino acids appears to be the first metabolic event followed by hydrolysis of the ester linkage |

— USRE38332E1, “Selected soluble esters of hydroxyl-containing indolocarbazoles” (Cephalon, Inc., priority 1995, dated 2003)
